PMC6282106, “Commercial drugs containing flavonoids are active in mice with malaria and in vitro against chloroquine-resistant Plasmodium falciparum” (Memórias do Instituto Oswaldo Cruz, 2018)
In brackets after ≈: the same amount, converted by molar mass. Where two headings read alike, the source gives them in different places.

Assays:
[1] = system: Plasmodium falciparum chloroquine-resistant clone (W2); experiment: microbe, parasite or virus in culture; assay type: cell-based; settings: for IC50: Plasmodium falciparum, W2, P. falciparum W2, anti-HRPII test, read-out: IC50 (dose inhibiting 50% of parasite growth), mean ± SD; for In vitro activity against P. falciparum, in words: P. falciparum W2
[2] = system: BGM cell line
[3] = system: Plasmodium berghei NK65; experiment: Antimalarial suppressive test in mice infected with P. berghei; settings: for Activity in P. berghei-infected mice, in words: 50 mg/kg by oral route, Table IV experiment
[4] = BGM cells, 24 h, MTT, mean of 3-5 experiments
[5] = Table V experiment, chloroquine 15 mg/kg
[6] = Table VI, chloroquine 1.25 mg/kg
[7] = Table VI, chloroquine 2.5 mg/kg
[8] = chloroquine at subcurative doses, dose not given
[9] = P. falciparum W2, anti-HRPII test, mean of 3-5 experiments
[10] = Table IV, 50 mg/kg oral, daily for three days
[11] = Table IV, 50 mg/kg oral, daily for three days, vs untreated controls

SMILES: O=C1O[C@H]([C@@H](O)CO)C(O)=C1O [Ascorbic acid]
- IC50 ([1]; mean of 3-5 experiments): ≥ 50 µg/mL

SMILES: CC1=C(/C=C/C(C)=C/C=C/C(C)=C/C=C/C=C(C)/C=C/C=C(C)/C=C/C2=C(C)CCCC2(C)C)C(C)(C)CCC1 [Beta carotene]
- Selectivity index (SI) MDL50 / IC50 [1]: ≥ 71.4
- In vitro activity against P. falciparum, in words [1]: reduced the P. falciparum parasite growth
- IC50 ([1]; mean of 3-5 experiments): 14 ± 3.1 µg/mL (≈ 26.1 µM)
- MDL50 (minimum lethal dose for 50% of cells), mean ± SD [2, 4]: ≥ 1000 µg/mL

SMILES: CCN(CC)CCCC(C)Nc1ccnc2cc(Cl)ccc12 (stereo not drawn) [Chloroquine]
- IC50 ([1]; mean of 3-5 experiments): 0.175 ± 0.02 µg/mL (≈ 0.547 µM)
- % Reduction of parasitaemia, 5th day ([3]; Table IV, chloroquine 20 mg/kg): 100%
- % Reduction of parasitaemia, 7th day ([3]; Table IV, chloroquine 20 mg/kg): 100%
- Survival (average ± SD) ([3]; Table IV, chloroquine 20 mg/kg): 24 ± 5
- mean parasitaemia ± SD, 5th day ([3]; Table IV, chloroquine 20 mg/kg): 0.0 ± 0.0
- mean parasitaemia ± SD, 7th day ([3]; Table IV, chloroquine 20 mg/kg): 0.0 ± 0.0
- % Reduction of parasitaemia, 7th day [3, 5]: 65%
- Survival (average ± SD) [3, 5]: 24 ± 5
- mean parasitaemia ± SD, 5th day [3, 5]: 0.0 ± 0.0
- mean parasitaemia ± SD, 7th day [3, 5]: 2.9 ± 1.1
- % Reduction of parasitaemia, 5th day ([3]; Table V experiment, chloroquine 15 mg/kg, sub-curative): 100%
- % Reduction of parasitaemia, 5th day [3, 6]: 93%
- % Reduction of parasitaemia, 7th day [3, 6]: 49%
- % Reduction of parasitaemia, 9th day [3, 6]: 56%
- Survival (average ± SD) [3, 6]: 19 ± 4
- mean parasitaemia ± SD, 5th day [3, 6]: 0.1 ± 0.03%
- mean parasitaemia ± SD, 7th day [3, 6]: 7.6 ± 3.3%
- mean parasitaemia ± SD, 9th day [3, 6]: 5.1 ± 0.1%
- % Reduction of parasitaemia, 5th day [3, 7]: 95%
- % Reduction of parasitaemia, 7th day [3, 7]: 79%
- % Reduction of parasitaemia, 9th day [3, 7]: 29%
- Survival (average ± SD) [3, 7]: 20 ± 9
- mean parasitaemia ± SD, 5th day [3, 7]: 0.01 ± 0.1%
- mean parasitaemia ± SD, 7th day [3, 7]: 3.1 ± 5.3%
- mean parasitaemia ± SD, 9th day [3, 7]: 8.4 ± 4.5%
- % Reduction of parasitaemia, 5th day ([3]; Table VI, chloroquine 5 mg/kg): 94%
- % Reduction of parasitaemia, 7th day ([3]; Table VI, chloroquine 5 mg/kg): 69%
- % Reduction of parasitaemia, 9th day ([3]; Table VI, chloroquine 5 mg/kg): 57%
- Survival (average ± SD) ([3]; Table VI, chloroquine 5 mg/kg): 24 ± 4
- mean parasitaemia ± SD, 5th day ([3]; Table VI, chloroquine 5 mg/kg): 0.0 ± 0.1%
- mean parasitaemia ± SD, 7th day ([3]; Table VI, chloroquine 5 mg/kg): 4.7 ± 4.0%
- mean parasitaemia ± SD, 9th day ([3]; Table VI, chloroquine 5 mg/kg): 5.1 ± 3.1%
- Reduction of parasitaemia, day 5 [3, 8]: 95%
- Reduction of parasitaemia, day 7 [3, 8]: 79%

SMILES: O=c1c(-c2ccc(O)cc2)coc2cc(O)cc(O)c12 [Genistein]
- Selectivity index (SI) MDL50 / IC50 ([1]; BGM MDL50 / P. falciparum W2 IC50, toxicity considered at SI < 10): Inactive
- In vitro activity against P. falciparum, in words [1]: no activity
- IC50 (dose inhibiting 50% of parasite growth), mean ± SD [1, 9]: 28.8 ± 18.0 µg/mL
- IC50 ([1]; mean of 3-5 experiments): > 25 µg/mL
- MDL50 (minimum lethal dose for 50% of cells), mean ± SD [2, 4]: ≥ 1000 µg/mL

SMILES: COc1ccc([C@@H]2CC(=O)c3c(O)cc(O[C@@H]4O[C@H](CO[C@@H]5O[C@@H](C)[C@H](O)[C@@H](O)[C@H]5O)[C@@H](O)[C@H](O)[C@H]4O)cc3O2)cc1O [Hesperidin]
- In vitro activity against P. falciparum, in words [1]: no activity
- IC50 (dose inhibiting 50% of parasite growth), mean ± SD [1, 9]: ≥ 50 µg/mL
- IC50 (dose inhibiting 50% of parasite growth), mean ± SD ([1]; P. falciparum W2, anti-HRPII test, mean of 3-5 experiments, listed as hesperidin): > 25 µg/mL
- MDL50 (minimum lethal dose for 50% of cells), mean ± SD [2, 4]: ≥ 1000 µg/mL
- Activity in P. berghei-infected mice, in words [3]: slightly active
- Survival (average ± SD) [3, 10]: 20 ± 3
- mean parasitaemia ± SD, 5th day [3, 10]: 5.2 ± 0.8
- mean parasitaemia ± SD, 7th day [3, 10]: 9.1 ± 1.3
- % Reduction of parasitaemia, 5th day [3, 11]: 47%
- % Reduction of parasitaemia, 7th day [3, 11]: 38%

SMILES: N[C@@H](CCC(=O)N[C@@H](CS)C(=O)NCC(=O)O)C(=O)O [L-Glutathione]
- IC50 (dose inhibiting 50% of parasite growth), mean ± SD [1]: ≥ 50 µg/mL
- MDL50 (minimum lethal dose for 50% of cells), mean ± SD [2]: ≥ 1000 µg/mL

SMILES: CC(=O)N[C@@H](CS)C(=O)O [N-Acetylcysteine]
- IC50 (dose inhibiting 50% of parasite growth), mean ± SD [1, 9]: ≥ 50 µg/mL
- MDL50 (minimum lethal dose for 50% of cells), mean ± SD [2]: ≥ 1000 µg/mL

SMILES: O=c1c(O)c(-c2ccc(O)c(O)c2)oc2cc(O)cc(O)c12 [Quercetin]
- Selectivity index (SI) MDL50 / IC50 [1]: ≥ 76.9
- In vitro activity against P. falciparum, in words [1]: most active flavonoid
- IC50 ([1]; mean of 3-5 experiments): 13 ± 8.4 µg/mL (≈ 43 µM)
- MDL50 (minimum lethal dose for 50% of cells), mean ± SD [2, 4]: ≥ 1000 µg/mL
- Activity in P. berghei-infected mice, in words [3]: best standard flavonoid
- Survival (average ± SD) [3, 10]: 22 ± 6
- mean parasitaemia ± SD, 5th day [3, 10]: 4.7 ± 4.0
- mean parasitaemia ± SD, 7th day [3, 10]: 8.3 ± 5.1
- % Reduction of parasitaemia, 7th day [3, 11]: 44%
- % Reduction of parasitaemia, 5th day ([3]; Table IV, 50 mg/kg oral, daily for three days, vs untreated controls, 50 mg/kg): 52%

SMILES: Cc1cc2nc3c(=O)[nH]c(=O)nc-3n(C[C@H](O)[C@H](O)[C@H](O)CO)c2cc1C [Riboflavin]
- In vitro activity against P. falciparum, in words [1]: reduced the P. falciparum parasite growth
- IC50 ([1]; mean of 3-5 experiments): 8.1 ± 4 µg/mL (≈ 21.5 µM)
- MDL50 (minimum lethal dose for 50% of cells), mean ± SD [2, 4]: ≥ 1000 µg/mL

SMILES: [Se] [Selenium]
- IC50 (dose inhibiting 50% of parasite growth), mean ± SD [1, 9]: ≥ 50 µg/mL

SMILES: CC(=O)Oc1c(C)c(C)c2c(c1C)CCC(C)(CCC[C@H](C)CCC[C@H](C)CCCC(C)C)O2 (stereo partly drawn) [Tocopherol acetate]
- Selectivity index (SI) MDL50 / IC50 [1]: Inactive
- IC50 ([1]; mean of 3-5 experiments): ≥ 50 µg/mL
- MDL50 (minimum lethal dose for 50% of cells), mean ± SD [2, 4]: ≥ 1000 µg/mL

SMILES: [O]=[Zn] [Zinc oxide]
- In vitro activity against P. falciparum, in words [1]: reduced the P. falciparum parasite growth
- IC50 (dose inhibiting 50% of parasite growth), mean ± SD [1, 9]: 2.7 ± 1.4 µg/mL
- MDL50 (minimum lethal dose for 50% of cells), mean ± SD [2, 4]: ≥ 1000 µg/mL
